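Exposure lasted 48 hours, with cells grown in 96-well plates and compounds tested at five concentrations. Definition used: TGI = concentration required for complete inhibition of growth.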
Columns and labels:
Assay in all cases: inhibition of tumour cell growth, NCI panel, 48 h
[1] = tested on: SNB-78 CNS
[2] = tested on: IGROV1 ovarian
[3] = tested on: SK-MEL-5 melanoma
[4] = tested on: LOX IMVI melanoma
[5] = tested on: HOP-18 NSCLC
[6] = tested on: UO-31 renal
[7] = tested on: LXFL 529 NSCLC
[8] = tested on: RPMI-8226 leukemia
[9] = tested on: SN12C renal
[10] = tested on: SW-620 colon
[11] = tested on: UACC-257 melanoma
[12] = tested on: NCI-H226 lung
[13] = tested on: ACHN renal
[14] = tested on: OVCAR-4 ovarian
[15] = tested on: NCI-H460 lung
[16] = tested on: NCI-H522 lung
[17] = tested on: MALME-3M melanoma
[18] = tested on: M19-MEL melanoma
[19] = tested on: HCT-116 colon
[20] = tested on: OVCAR-3 ovarian
[21] = tested on: HOP-62 NSCLC
[22] = tested on: OVCAR-5 ovarian
[23] = tested on: SF-539 CNS
[24] = tested on: HL-60(TB) leukemia
[25] = tested on: CCRF-CEM leukemia
[26] = tested on: K-562 leukemia
[27] = tested on: HCC-2998 colon
[28] = tested on: A549 NSCLC
[29] = tested on: SNB-19 CNS
[30] = tested on: SR leukemia
[31] = tested on: SK-OV-3 ovarian
[32] = tested on: KM20L2 colon
[33] = tested on: SF-268 CNS
[34] = tested on: DLD-1 colon
[35] = tested on: EKVX NSCLC
[36] = tested on: M14 melanoma
[37] = tested on: OVCAR-8 ovarian
[38] = tested on: NCI-H23 lung
[39] = tested on: SF-295 CNS
[40] = tested on: COLO 205 colon
[41] = tested on: A498 renal
[42] = tested on: UACC-62 melanoma
[43] = tested on: SK-MEL-2 melanoma
[44] = tested on: MOLT-4 leukemia
[45] = tested on: DMS 114 small cell lung
[46] = tested on: SK-MEL-28 melanoma
[47] = tested on: SNB-75 CNS
[48] = tested on: KM12 colon
[49] = tested on: U251 CNS
[50] = tested on: CAKI-1 renal
[51] = tested on: HCT-15 colon
[52] = tested on: HT29 colon
[53] = tested on: RXF 393 renal
[54] = tested on: HOP-92 NSCLC
[55] = tested on: TK-10 renal
[56] = tested on: 786-0 renal
[57] = tested on: DMS 273 small cell lung
[58] = tested on: XF 498 CNS

Compound: N=S(=O)(c1ccccc1)c1ccccc1
- TGI [1]: > 100 µM
- TGI [2]: > 100 µM
- TGI [3]: > 100 µM
- TGI [4]: > 100 µM
- TGI [5]: > 100 µM
- TGI [6]: > 100 µM
- TGI [7]: > 100 µM
- TGI [8]: > 100 µM
- TGI [9]: > 100 µM
- TGI [10]: > 100 µM
- TGI [11]: > 100 µM
- TGI [12]: > 100 µM
- TGI [13]: > 100 µM
- TGI [14]: > 100 µM
- TGI [15]: > 100 µM
- TGI [16]: > 100 µM
- TGI [17]: > 100 µM
- TGI [18]: > 100 µM
- TGI [19]: > 100 µM
- TGI [20]: > 100 µM
- TGI [21]: > 100 µM
- TGI [22]: > 100 µM
- TGI [23]: > 100 µM
- TGI [24]: > 100 µM
- TGI [25]: > 100 µM
- TGI [26]: > 100 µM
- TGI [27]: > 100 µM
- TGI [28]: > 100 µM
- TGI [29]: > 100 µM
- TGI [30]: > 100 µM
- TGI [31]: > 100 µM
- TGI [32]: > 100 µM
- TGI [33]: > 100 µM
- TGI [34]: > 100 µM
- TGI [35]: > 100 µM
- TGI [36]: > 100 µM
- TGI [37]: > 100 µM
- TGI [38]: > 100 µM
- TGI [39]: > 100 µM
- TGI [40]: > 100 µM
- TGI [41]: > 100 µM
- TGI [42]: > 100 µM
- TGI [43]: > 100 µM
- TGI [44]: > 100 µM
- TGI [45]: > 100 µM
- TGI [46]: > 100 µM
- TGI [47]: > 100 µM
- TGI [48]: > 100 µM
- TGI [49]: > 100 µM
- TGI [50]: > 100 µM

Compound: COc1ccc(C2S/C(=C\c3cccc(OC)c3)C(=O)N2NC(=O)Cc2ccccc2)cc1 (stereo not given)
- TGI [2]: > 100 µM
- TGI [3]: > 100 µM
- TGI [4]: > 100 µM
- TGI [5]: > 100 µM
- TGI [6]: > 100 µM
- TGI [7]: > 100 µM
- TGI [8]: > 100 µM
- TGI [51]: > 100 µM
- TGI [9]: > 100 µM
- TGI [10]: > 100 µM
- TGI [11]: > 100 µM
- TGI [12]: > 100 µM
- TGI [13]: > 100 µM
- TGI [52]: > 100 µM
- TGI [14]: > 100 µM
- TGI [15]: > 100 µM
- TGI [16]: > 100 µM
- TGI [17]: > 100 µM
- TGI [18]: > 100 µM
- TGI [53]: > 100 µM
- TGI [19]: > 100 µM
- TGI [21]: > 100 µM
- TGI [22]: > 100 µM
- TGI [23]: > 100 µM
- TGI [24]: > 100 µM
- TGI [25]: > 100 µM
- TGI [26]: > 100 µM
- TGI [28]: > 100 µM
- TGI [30]: > 100 µM
- TGI [31]: > 100 µM
- TGI [33]: > 100 µM
- TGI [34]: > 100 µM
- TGI [54]: > 100 µM
- TGI [36]: > 100 µM
- TGI [37]: > 100 µM
- TGI [38]: > 100 µM
- TGI [39]: > 100 µM
- TGI [40]: > 100 µM
- TGI [41]: > 100 µM
- TGI [42]: > 100 µM
- TGI [43]: > 100 µM
- TGI [55]: > 100 µM
- TGI [44]: > 100 µM
- TGI [56]: > 100 µM
- TGI [46]: > 100 µM
- TGI [47]: > 100 µM
- TGI [48]: > 100 µM
- TGI [49]: > 100 µM
- TGI [57]: > 100 µM
- TGI [50]: > 100 µM

Compound: N=c1n(CC(=O)NC23CC4CC(CC(C4)C2)C3)c2ccccc2n1CC(=O)NC12CC3CC(CC(C3)C1)C2
- TGI [1]: 6.38 µM
- TGI [2]: 3.1 µM
- TGI [3]: 3.24 µM
- TGI [5]: 4.5 µM
- TGI [6]: 26 µM
- TGI [7]: 3.46 µM
- TGI [8]: 6.07 µM
- TGI [51]: 3.31 µM
- TGI [9]: 3.45 µM
- TGI [10]: 3 µM
- TGI [11]: 3.17 µM
- TGI [13]: 3.94 µM
- TGI [52]: 3.21 µM
- TGI [14]: 3.38 µM
- TGI [15]: 3.17 µM
- TGI [16]: 3.3 µM
- TGI [17]: 3.04 µM
- TGI [18]: 3.09 µM
- TGI [53]: 3.17 µM
- TGI [19]: 3.46 µM
- TGI [20]: 3.32 µM
- TGI [21]: 3.48 µM
- TGI [22]: 3.08 µM
- TGI [23]: 3.36 µM
- TGI [24]: 4.82 µM
- TGI [25]: 6.23 µM
- TGI [26]: 5.54 µM
- TGI [58]: 2.93 µM
- TGI [27]: 2.65 µM
- TGI [29]: 3.02 µM
- TGI [30]: 4.51 µM
- TGI [31]: 29.1 µM
- TGI [32]: 3.2 µM
- TGI [33]: 3.72 µM
- TGI [34]: 3.5 µM
- TGI [35]: 5.03 µM
- TGI [54]: 3.06 µM
- TGI [36]: 3.38 µM
- TGI [37]: 3.13 µM
- TGI [38]: 3.13 µM
- TGI [39]: 3.52 µM
- TGI [40]: 3.49 µM
- TGI [41]: 3.15 µM
- TGI [42]: 3.45 µM
- TGI [43]: 30.9 µM
- TGI [55]: 3.08 µM
- TGI [44]: 6 µM
- TGI [56]: 3.19 µM
- TGI [45]: 3.67 µM
- TGI [46]: 3.17 µM
- TGI [47]: 4.12 µM
- TGI [48]: 2.98 µM
- TGI [49]: 3.02 µM
- TGI [57]: 3.35 µM
- TGI [50]: 24.3 µM

Compound: O=C1C=CC(=O)C2C1Cc1ccccc1C2c1ccccc1 (stereo not given)
- TGI [2]: > 100 µM
- TGI [3]: > 100 µM
- TGI [4]: > 100 µM
- TGI [5]: > 100 µM
- TGI [6]: > 100 µM
- TGI [7]: 31.1 µM
- TGI [8]: 67.6 µM
- TGI [51]: > 100 µM
- TGI [9]: > 100 µM
- TGI [10]: 71 µM
- TGI [11]: 70.2 µM
- TGI [12]: > 100 µM
- TGI [13]: > 100 µM
- TGI [52]: > 100 µM
- TGI [14]: 46 µM
- TGI [15]: 81.4 µM
- TGI [16]: 35.2 µM
- TGI [17]: > 100 µM
- TGI [18]: > 100 µM
- TGI [19]: > 100 µM
- TGI [20]: 88.3 µM
- TGI [21]: > 100 µM
- TGI [22]: > 100 µM
- TGI [23]: > 100 µM
- TGI [24]: 53.1 µM
- TGI [25]: 68.7 µM
- TGI [26]: > 100 µM
- TGI [27]: 60 µM
- TGI [28]: > 100 µM
- TGI [29]: > 100 µM
- TGI [30]: 59.1 µM
- TGI [31]: > 100 µM
- TGI [32]: > 100 µM
- TGI [33]: > 100 µM
- TGI [34]: > 100 µM
- TGI [35]: 72.9 µM
- TGI [54]: 85 µM
- TGI [36]: > 100 µM
- TGI [37]: 78 µM
- TGI [38]: > 100 µM
- TGI [39]: > 100 µM
- TGI [40]: 35.5 µM
- TGI [41]: 73.1 µM
- TGI [42]: > 100 µM
- TGI [43]: 90.1 µM
- TGI [55]: > 100 µM
- TGI [44]: 93.2 µM
- TGI [56]: > 100 µM
- TGI [45]: 42.3 µM
- TGI [46]: > 100 µM
- TGI [47]: > 100 µM
- TGI [48]: > 100 µM
- TGI [49]: 33 µM
- TGI [57]: > 100 µM
- TGI [50]: > 100 µM
